For orientation: Ki means the equilibrium dissociation constant of an inhibitor or competing ligand from its target. The low end stands for higher affinity, the high end for lower affinity.

Values joined by “and” are separate entries in the source; they are usually repeats but may differ in a detail not shown here. Equal values may be shown once. Read-outs that look alike come from different tables or passages of the source.

Data on ten compounds can be found in patent publication US8420830B2, “Macrocyclic factor VIIa inhibitors useful as anticoagulants” (Bristol-Myers Squibb Company, priority 2006, dated 2013).

The conditions of data set [1]: amide bond, BOP, CH2Cl2, 40.0 °C.
The conditions of data set [2]: amide bond; 16-membered ring; TFA; BOP/DMAP/Et3N; CH2Cl2/DMF; 40.0 °C; 2 steps.
Data set [3] has as its target T1, Factor VIIa (Homo sapiens, UniProt P08709).
T1 construct: purchased Haematologic Technologies (purified) or Novo Nordisk (recombinant)
As to the kind of experiment: Factor VIIa assay. The class given is biochemical. The note with it: measured in the Factor VIIa assay described above; several values in a cell are repeat determinations.

In data set [4] the test system is patients undergoing total knee replacement. The note with it: cited from earlier work.
Data set [5] concerns patients undergoing coronary angioplasty. As to conditions: cited from earlier work.
Data set [6] deals with patients with acute coronary syndromes. The note with it: cited from earlier work.

T1 sequence (P08709 213-466 limits assumed): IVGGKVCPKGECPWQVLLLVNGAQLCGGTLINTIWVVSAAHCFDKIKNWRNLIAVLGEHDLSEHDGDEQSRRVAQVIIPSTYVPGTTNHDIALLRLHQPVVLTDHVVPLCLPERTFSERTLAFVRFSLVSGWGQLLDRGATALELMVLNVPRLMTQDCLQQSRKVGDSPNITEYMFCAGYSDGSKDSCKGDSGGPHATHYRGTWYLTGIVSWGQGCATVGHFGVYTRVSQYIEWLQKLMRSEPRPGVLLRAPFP
T1 sequence (P08709 61-212 limits assumed): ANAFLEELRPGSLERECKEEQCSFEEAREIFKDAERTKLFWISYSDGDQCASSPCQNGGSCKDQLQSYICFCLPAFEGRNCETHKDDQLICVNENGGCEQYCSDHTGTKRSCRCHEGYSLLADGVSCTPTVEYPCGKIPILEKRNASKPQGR
T1 sequence (P13726 33-251 partner limits assumed): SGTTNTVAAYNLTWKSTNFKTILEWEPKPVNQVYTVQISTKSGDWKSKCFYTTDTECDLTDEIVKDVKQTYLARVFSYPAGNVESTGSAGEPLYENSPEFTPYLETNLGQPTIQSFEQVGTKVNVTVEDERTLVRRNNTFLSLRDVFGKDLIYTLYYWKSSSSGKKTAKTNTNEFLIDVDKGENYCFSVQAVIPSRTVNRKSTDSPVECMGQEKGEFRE

`CC(C)S(=O)(=O)c1ccc2cc1CN(C)C(=O)[C@H](Nc1ccc3c(c1)C(=O)NC3)c1ccc(cc1)CCCC(=O)N2`: the ring closure, yield of all isomers in data set [1] (from CNCc1cc(NC(=O)CCCc2ccc(C(Nc3ccc4c(c3)C(=O)NC4)C(=O)O)cc2)ccc1S(=O)(=O)C(C)C, 8.05 mM, 16.0 h) stood at 31.8%.
In data set [1] (from CNCc1cc(NC(=O)CCCc2ccc(C(Nc3ccc4c(c3)C(=O)NCC4)C(=O)O)cc2)ccc1S(=O)(=O)C(C)C, 5.11 mM, 7.0 h), `CC(C)S(=O)(=O)c1ccc2cc1CN(C)C(=O)[C@H](Nc1ccc3c(c1)C(=O)NCC3)c1ccc(cc1)CCCC(=O)N2` showed a ring closure, yield of all isomers of 19.9%.
`CCS(=O)(=O)c1ccc2cc1CNC(=O)[C@H](Nc1ccc3c(c1)C(=O)NC3)c1ccc(cc1)CCCC(=O)N2` returned a ring closure, yield of all isomers in data set [1] (from CCS(=O)(=O)c1ccc(NC(=O)CCCc2ccc(C(Nc3ccc4c(c3)C(=O)NC4)C(=O)O)cc2)cc1CNC(=O)OC(C)(C)C, 6.6 mM, 6.0 h, 2 steps) of 27.7%.
`CCS(=O)(=O)c1ccc2cc1CNC(=O)[C@H](Nc1ccc3c(c1)C(=O)NCC3)c1ccc(cc1)CCCC(=O)N2`: the ring closure, yield after HPLC in data set [2] amounted to 28.4%. In data set [1] (from CCS(=O)(=O)c1ccc(NC(=O)CCCc2ccc(C(Nc3ccc4c(c3)C(=O)NCC4)C(=O)O)cc2)cc1CNC(=O)OC(C)(C)C, 6.0 h, 2 steps), this compound displayed a ring closure, yield of all isomers of 28.4%.
Regarding `COCCN1Cc2cccc(c2)NC(=O)OC[C@H](C)c2ccc(cc2C)[C@@H](Nc2ccc3cc[nH]c(=O)c3c2)C1=O` [Example 152, (2R,15R)-4-(2-Methoxy-ethyl)-15,17-dimethyl-2-(1-oxo-1,2-dihydro-isoquinolin-7-ylamino)-13-oxa-4,11-diaza-tricyclo[14.2.2.1^6,10]henicosa-1(19),6,8,10(21),16(20),17-hexaene-3,12-dione], the Ki in data set [3] was 1060 nM.
For the compound `COC(=O)NCCN1Cc2cccc(c2)NC(=O)OC[C@H](C)c2ccc(cc2C)[C@@H](Nc2ccc3cc[nH]c(=O)c3c2)C1=O` [Example 153, {2-[(2R,15R)-15,17-Dimethyl-3,12-dioxo-2-(1-oxo-1,2-dihydro-isoquinolin-7-ylamino)-13-oxa-4,11-diaza-tricyclo[14.2.2.1^6,10]henicosa-1(19),6,8,10(21),16(20),17-hexaen-4-yl]-ethyl}-carbamic acid methyl ester], the Ki in data set [3] stood at 1460 nM. The Ki values of the last two compounds are within 1.5-fold of each other.
On the same count and under the same terms, next, `CCOC(=O)CCN1Cc2cccc(c2)NC(=O)OC[C@H](C)c2ccc(cc2C)[C@@H](Nc2ccc3cc[nH]c(=O)c3c2)C1=O` [Example 154, 3-[(2R,15R)-15,17-Dimethyl-3,12-dioxo-2-(1-oxo-1,2-dihydro-isoquinolin-7-ylamino)-13-oxa-4,11-diaza-tricyclo[14.2.2.1^6,10]henicosa-1(19),6,8,10(21),16(20),17-hexaen-4-yl]-propionic acid ethyl ester]: 1000 nM.
Same read-out and setting: in the case of `Cc1cc2ccc1[C@@H](C)COC(=O)Nc1cccc(c1)[C@@H](C)NC(=O)[C@@H]2Nc1ccc2cc[nH]c(=O)c2c1` [Example 158] it was 27.1 nM and 97.5 nM; in that of `Cc1cc2ccc1[C@@H](C)COC(=O)Nc1ccc(N3C(=O)C4CCC3CC4)c(c1)CN(C)C(=O)[C@@H]2Nc1ccc2cc[nH]c(=O)c2c1` [Example 168, (2R,15R)-4,15,17-Trimethyl-7-(3-oxo-2-aza-bicyclo[2.2.2]oct-2-yl)-2-(1-oxo-1,2-dihydro-isoquinolin-7-ylamino)-13-oxa-4,11-diaza-tricyclo[14.2.2.1^6,10]henicosa-1(19),6,8,10(21),16(20),17-hexaene-3,12-dione], 0.88 nM.
As to “recombinant nematode anticoagulant protein c2 [rNAPc2]”, in data set [4], the deep vein thrombosis entry is reported as “prevents deep vein thrombosis”. Besides, in data set [5], the systemic thrombin generation result is recorded as “reduces systemic thrombin generation”. Moreover, the “magnitude and duration of ischemic events” value in data set [6] was “reduces magnitude and duration of ischemic events”.
